{"source": "patent US4080450A", "about": "“2-Carbamoyl-1,2,4,5-tetrahydro-3H-2-benzazepin-3-ones” (U C B, Societe Anonyme, priority 1976, dated 1978)", "key": {"[1]": {"assay": "spinal fixation time test (elementary model of memory)", "assay_type": "in vivo, rat", "settings": "i.p.", "excerpt": "Action on the mnemic processes is shown, in particular, by a reduction in the time for spinal fixation, a test which has been described in the literature (C. GIURGEA and F. MOURAVIEFF-LESUISSE, Arch.Int.Pharmacodyn. 191,(2),(1971),279) as an elementary model of memory and which is endowed with a pharmacological reactivity in good correlation with the clinical physiopathology. In the rat, after unilateral lesion of the cerebellum, there is a postural asymmetry of the hind paws. This asymmetry may persist, even after spinal section, if the animal has been in this situation for a sufficiently long period of time. This time, which is called the spinal fixation time, is 45 minutes under the experimental conditions. On the other hand, if spinal section is performed before the expiry of this period, for example 35 minutes after the onset of the asymmetry, the latter disappears. […] Conversely, any compound which allows the rats to retain the asymmetry (thus achieving spinal fixation) when the spinal section is carried out after 35 minutes, is regarded as being active.\nUnder these conditions, administration of a compound according to the present invention, for example 2-methyl-carbamoyl-1,2,4,5-tetrahydro-3H-2-benzazepin-3-one (compound A) or 4,5-dimethyl-2-methylcarbamoyl-1,2,4,5-tetrahydro-3H-2-benzazepin-3-one(compound B), produces the following effects: […]"}, "[2]": {"assay": "active avoidance test (memory retention)", "assay_type": "in vivo, rat", "settings": "for minimal effective dose: Rattus norvegicus, sc, subcutaneous, minimum dose which lowers the stimulus to below 110 g", "excerpt": "The principle of the active avoidance test, which has been developed in our laboratories and used for this purpose, may be described as follows: the withdrawal reaction of a rat's paw subjected to increasing and measured pressure is observed. The pressure at which the withdrawal reaction is produced is called the reaction threshold. The latter is expressed in grams and thus corresponds to the minimum pressure which, when applied to the paw of the animals causes withdrawal. It is read off directly from a scale on the apparatus used. […] A minimum of 20 rats are used for each test (10 treated rats and 10 control rats), the active dose being defined as the minimum dose which lowers the stimulus to below 110 g.\n*Stimulus (expressed in g.) initiating the avoidance reaction 24 hours\nafter the first stimulation."}, "[3]": {"assay": "Brevatonal test (protection against hypoxic type aggressions)", "assay_type": "in vivo, mice", "settings": "i.p.", "procedure": "At the doses used, this curarizing agent brings about a respiratory depression which, in turn, brings about a hypoxi-hypercapnic syndrome. A compound capable of protecting the brain during this short period of hypoxia ensures survival. The compounds are administered to groups of 10 mice one hour before the injection of the curarizing agent; concurrently herewith, a control group of 10 mice is given a physiological salt solution prior to the curarizing agent. For each compound, the proportion of mice which survive is compared to the proportion of control mice which survive by the \"Fisher exact probability test\". This test, called the Brevatonal test, has also been developed in our laboratories.\nIntraperitoneal administration (i.p.) of compounds according to the present invention, namely, 2-methylcarbamoyl-1,2,4,5-tetrahydro-3H-2-benzazepin-3-one (compound A), 4,5-dimethyl-2-methylcarbamoyl-1,2,4,5-tetrahydro-3H-2-benzazepin-3-one (compound B) and 4-n-butyl-2-methylcarbamoyl-1,2,4,5-tetrahydro-3H-2-benzazepin-3-one (compound I) under these conditions produced the effects summarized in the following Table II."}, "[4]": {"assay": "toxicity, lethal dose (LD50)", "settings": "in vivo, ip; rat, intraperitoneal", "procedure": "The new compounds according to the present invention appear to have a remarkably low toxicity. For example, for compound A, the lethal dose (LD50) in the rat, when administered intraperitoneally, is more than 1000 mg./kg."}, "[5]": {"settings": "30 mg./kg. (0.2 mmole/kg.), Giurgea and Mouravieff-Lesuisse, cited from earlier work"}}, "note": "Where “and” joins values, the source holds several entries; their conditions need not be identical. Equal values may be shown once. Read-outs that look alike come from different tables or passages of the source."}
{"smiles": "CNC(=O)N1Cc2ccccc2[C@@H](C)[C@@H](C)C1=O", "note": "(relative stereo) [B, 4,5-dimethyl-2-methylcarbamoyl-1,2,4,5-tetrahydro-3H-2-benzazepin-3-one]", "values": [{"measurement": "spinal fixation after 35 minutes (animals)", "setting": "[1]; 24 mg./kg. (0.1 mmole/kg.)", "value": "three animals out of seven"}, {"measurement": "minimal effective dose", "setting": "[2]", "value": "1.23 mg/kg and 5 µmol/kg"}, {"measurement": "Stimulus initiating the avoidance reaction 24 hours after the first stimulation", "setting": "[2]; subcut. dose 0.49 mg./kg., control (dose 0) 152", "value": 124, "unit": "g"}, {"measurement": "Stimulus initiating the avoidance reaction 24 hours after the first stimulation", "setting": "[2]; subcut. dose 1.23 mg./kg., control (dose 0) 152", "value": 107, "unit": "g"}, {"measurement": "Proportion of survivors, treated animals", "setting": "[3]; 25 mg./kg. (0.1 mmole/kg.), control 1/10", "value": "7/10"}]}
{"smiles": "CNC(=O)N1Cc2ccccc2CCC1=O", "note": "[A, 2-methylcarbamoyl-1,2,4,5-tetrahydro-3H-2-benzazepin-3-one]", "values": [{"measurement": "spinal fixation after 35 minutes (animals)", "setting": "[1]; 70 mg./kg. (0.3 mmole/kg.)", "value": "three animals out of five"}, {"measurement": "minimal effective dose", "setting": "[2]", "value": "2.18 mg/kg and 10 µmol/kg"}, {"measurement": "Stimulus initiating the avoidance reaction 24 hours after the first stimulation", "setting": "[2]; subcut. dose 1.09 mg./kg., control (dose 0) 159", "value": 120, "unit": "g"}, {"measurement": "Stimulus initiating the avoidance reaction 24 hours after the first stimulation", "setting": "[2]; subcut. dose 2.18 mg./kg., control (dose 0) 159", "value": 89, "unit": "g"}, {"measurement": "LD50", "setting": "[4]", "value": "> 1000", "unit": "mg/kg"}, {"measurement": "Proportion of survivors, treated animals", "setting": "[3]; 70 mg./kg. (0.32 mmole/kg.), control 1/10", "value": "6/10"}]}
{"smiles": "CC1CC(=O)N(C(=O)N2CCOCC2)Cc2ccccc21", "note": "(stereo not shown) [C, 5-methyl-2-morpholinocarbonyl-1,2,4,5-tetrahydro-3H-2-benzazepin-3-one]", "values": [{"measurement": "minimal effective dose", "setting": "[2]", "value": "2.88 mg/kg and 10 µmol/kg"}, {"measurement": "Stimulus initiating the avoidance reaction 24 hours after the first stimulation", "setting": "[2]; subcut. dose 0.28 mg./kg., control (dose 0) 173", "value": 116, "unit": "g"}, {"measurement": "Stimulus initiating the avoidance reaction 24 hours after the first stimulation", "setting": "[2]; subcut. dose 2.88 mg./kg., control (dose 0) 173", "value": 98, "unit": "g"}]}
{"smiles": "CNC(=O)N1Cc2ccc(Cl)cc2CCC1=O", "note": "[D, 7-chloro-2-methylcarbamoyl-1,2,4,5-tetrahydro-3H-2-benzazepin-3-one]", "values": [{"measurement": "minimal effective dose", "setting": "[2]", "value": "2.52 mg/kg and 10 µmol/kg"}, {"measurement": "Stimulus initiating the avoidance reaction 24 hours after the first stimulation", "setting": "[2]; subcut. dose 1.26 mg./kg., control (dose 0) 157", "value": 122, "unit": "g"}, {"measurement": "Stimulus initiating the avoidance reaction 24 hours after the first stimulation", "setting": "[2]; subcut. dose 2.52 mg./kg., control (dose 0) 157", "value": 100, "unit": "g"}]}
{"smiles": "CNC(=O)N1Cc2ccc(Cl)cc2CC(C)C1=O", "note": "(stereo not shown) [E, 7-chloro-4-methyl-2-methylcarbamoyl-1,2,4,5-tetrahydro-3H-2-benzazepin-3-one]", "values": [{"measurement": "minimal effective dose", "setting": "[2]", "value": "0.53 mg/kg and 2 µmol/kg"}, {"measurement": "Stimulus initiating the avoidance reaction 24 hours after the first stimulation", "setting": "[2]; subcut. dose 0.26 mg./kg., control (dose 0) 163", "value": 115, "unit": "g"}, {"measurement": "Stimulus initiating the avoidance reaction 24 hours after the first stimulation", "setting": "[2]; subcut. dose 0.53 mg./kg., control (dose 0) 163", "value": 83, "unit": "g"}]}
{"smiles": "CCCCNC(=O)N1Cc2ccccc2CCC1=O", "note": "[F, 2-n-butylcarbamoyl-1,2,4,5-tetrahydro-3H-2-benzazepin-3-one]", "values": [{"measurement": "minimal effective dose", "setting": "[2]", "value": "< 0.2 mg/kg and < 0.8 µmol/kg"}, {"measurement": "Stimulus initiating the avoidance reaction 24 hours after the first stimulation", "setting": "[2]; subcut. dose 0.2 mg./kg., control (dose 0) 159", "value": 92, "unit": "g"}]}
{"smiles": "CCCCNC(=O)N1C(=O)CCc2cc(OC)ccc2C1c1ccccc1", "note": "(stereo not shown) [G, 2-n-butylcarbamoyl-7-methoxy-1-phenyl-1,2,4,5-tetrahydro-3H-2-benzazepin-3-one]", "values": [{"measurement": "Stimulus initiating the avoidance reaction 24 hours after the first stimulation", "setting": "[2]; subcut. dose 0.72 mg./kg.", "value": 106, "unit": "g"}, {"measurement": "Stimulus initiating the avoidance reaction 24 hours after the first stimulation", "setting": "[2]; subcut. dose 3.66 mg./kg.", "value": 95, "unit": "g"}]}
{"smiles": "CN(C)C(=O)N1Cc2ccccc2CCC1=O", "note": "[H, 2-dimethylcarbamoyl-1,2,4,5-tetrahydro-3H-2-benzazepin-3-one]", "values": [{"measurement": "minimal effective dose", "setting": "[2]", "value": "2.32 mg/kg and 10 µmol/kg"}, {"measurement": "Stimulus initiating the avoidance reaction 24 hours after the first stimulation", "setting": "[2]; subcut. dose 2.32 mg./kg.", "value": 90, "unit": "g"}]}
{"smiles": "CCCCC1Cc2ccccc2CN(C(=O)NC)C1=O", "note": "(stereo not shown) [I, 4-n-butyl-2-methylcarbamoyl-1,2,4,5-tetrahydro-3H-2-benzazepin-3-one]", "values": [{"measurement": "Proportion of survivors, treated animals", "setting": "[3]; 27 mg./kg. (0.1 mmole/kg.), control 1/10", "value": "7/10"}, {"measurement": "Proportion of survivors, treated animals", "setting": "[3]; 87 mg./kg. (0.32 mmole/kg.), control 1/10", "value": "8/10"}]}
{"smiles": "NC(=O)CN1CCCC1=O", "note": "[piracetam, reference compound]", "values": [{"measurement": "spinal fixation after 35 minutes (animals)", "setting": "[5]; same conditions", "value": "four animals out of nine"}, {"measurement": "activity in spinal fixation test", "setting": "[5]", "value": "active"}, {"measurement": "minimal effective dose", "setting": "[2]", "value": "3.5 mg/kg and 25 µmol/kg"}, {"measurement": "Stimulus initiating the avoidance reaction 24 hours after the first stimulation", "setting": "[2]; subcut. dose 1.5 mg./kg., control (dose 0) 153", "value": 120, "unit": "g"}, {"measurement": "Stimulus initiating the avoidance reaction 24 hours after the first stimulation", "setting": "[2]; subcut. dose 3.5 mg./kg., control (dose 0) 153", "value": 90, "unit": "g"}, {"measurement": "retention of the earlier test", "setting": "[2]; tested 24 hours later, versus control animals", "value": "significant degree of retention"}, {"measurement": "Proportion of survivors, treated animals", "setting": "[3]; 45 mg./kg. (0.32 mmole/kg.), control 0/10", "value": "1/10"}, {"measurement": "Proportion of survivors, treated animals", "setting": "[3]; 142 mg./kg. (1 mmole/kg.), control 2/10", "value": "4/10"}, {"measurement": "Proportion of survivors, treated animals", "setting": "[3]; 454 mg./kg. (3.2 mmole/kg.), control 1/10", "value": "8/10"}]}
